Assay results published in article PMC4536136 (Bioorganic & medicinal chemistry, 2015).

Tests used:
[1] = Pharmacokinetic analysis after ip administration in mice; type: in vivo; conditions: for Kp / concentration at 4 h / concentration at 12 h: Swiss Webster, mouse, ip, 10 mg/kg; for Kp: liver and spleen (versus plasma)
BALB/c mice = experiment: Toxicity to BALB/c mice; type: in vivo
[2] = target: intracellular Leishmania donovani strain MHOM/ET/67/L82 β-lactamase expressing parasites; conditions: cited from earlier work; for EC50: read-out: L. donovani EC50, ref Van Horn et al.[18]
L. donovani = conditions: 15 mg/kg/day for five days, ip; cited from earlier work

Q: With `Clc1ccc(CNc2nc(NCc3ccccc3)c3ccccc3n2)cc1` [Compound 15, N^4-benzyl-N^2-(4-chlorobenzyl)quinazoline-2,4-diamine] as the compound, how does the “plasma AUC relative to 40 after adjusting for dose” value ([1]; 10 mg/kg ip, mice) read?
A: 2.8 fold

Q: What about the Kp [1] of the same compound?
A: 20 to 21

Q: What about the concentration at 4 h ([1]; liver) of the same compound?
A: 25.3 µM

Q: And the concentration at 12 h ([1]; liver)?
A: 25.3 µM

Q: What about the concentration at 4 h ([1]; spleen) of the same compound?
A: 26.6 µM

Q: And the concentration at 12 h ([1]; spleen)?
A: 26.6 µM

Q: And the “toxicity to BALB/c mice” value (BALB/c mice; 10 mg/kg/day × 5, ip)?
A: no apparent adverse effects

Q: And the “toxicity to BALB/c mice” value (BALB/c mice; 30 mg/kg/day × 5, ip)?
A: toxic

Q: For `CNc1nc(NCc2ccccc2)nc2ccccc12` [Compound 2, N^2-benzyl-N^4-methylquinazoline-2,4-diamine], which EC50 [2] is on record?
A: 150 ± 20 nM

Q: Which EC50 [2] does the source give for `CC(C)Nc1nc(NCc2ccco2)c2ccccc2n1` [Compound 3] here?
A: 2500 ± 400 nM

Q: Which Kp [1] does the source give for `CC(C)Nc1nc(NCc2ccccc2)nc2ccccc12` [Compound 40, N^2-benzyl-N^4-isopropylquinazoline-2,4-diamine] here?
A: 3.2 to 16

Q: And the concentration at 4 h ([1]; liver)?
A: 20.2 µM

Q: And the concentration at 12 h ([1]; liver)?
A: 20.2 µM

Q: What about the concentration at 4 h ([1]; spleen) of the same compound?
A: 16.5 µM

Q: What about the concentration at 12 h ([1]; spleen) of the same compound?
A: 16.5 µM

Q: What about the “toxicity to BALB/c mice” value (BALB/c mice; 10 mg/kg/day × 5, ip) of the same compound?
A: no apparent adverse effects

Q: What about the “toxicity to BALB/c mice” value (BALB/c mice; 30 mg/kg/day × 5, ip) of the same compound?
A: toxic

Q: Which “L. donovani EC50” value ([2]; ref Van Horn et al.[18]) does the source give for `Cc1ccc2c(NCc3ccco3)nc(NC(C)C)nc2c1` [Compound 4, N^4-(furan-2-ylmethyl)-N^2-isopropyl-7-methylquinazoline-2,4-diamine] here?
A: submicromolar

Q: And the “activity in L. donovani-infected mice” value (L. donovani)?
A: promising activity

Q: With `c1ccc(CNc2nc(NCc3ccccc3)c3ccccc3n2)cc1` [Compound 1, N^2,N^4-dibenzylquinazoline-2,4-diamine] as the compound, how does the EC50 [2] read?
A: 670 ± 270 nM
